Data: patent US10899756B2, “Phosphodiesterase inhibitors and uses thereof” (The Trustees of Columbia University in the City of New York, priority 2013, dated 2021)

Molecular target: PDE5 (Homo sapiens (Human), UniProt O76074)
Assay: PDE5 Inhibition Assay (BPS PDE assay kit, fluorescence polarization)
Format: biochemical
Description: Materials and Methods: PDE5 inhibition was assayed at BPS Bioscience (San Diego, Calif.) using BPS PDE assay kits (BPS Catalog number 60300, enzyme lot 090810). Test compounds were supplied as liquid solutions of 10 mM concentration in DMSO. Sildenafil, used as a standard was dissolved in DMSO. Intermediate dilutions were 10% DMSO in PDE assay buffer and tests at ranges from 0.1 to 100 nM. 0.1 ng of enzyme was used per reaction, and the substrate was 100 nM FAM-cGMP.
Assay conditions: A series of dilutions of the test compounds were prepared with 10% DMSO in assay buffer and 5 μl of the dilution was added to a 50 μl reaction so that the final concentration of DMSO is 1% in all of reactions. The enzymatic reactions were conducted at room temperature for 60 minutes in a 50 μl mixture containing PDE assay buffer, 100 nM FAM-cAMP or 100 nM FAM-cGMP, a PDE enzyme, and the test compound. After the enzymatic reaction, 100 μl of a binding solution (1:100 dilution of the binding agent with the binding agent diluent) was added to each reaction and the reaction was performed at room temperature for 60 minutes. Fluorescence intensity was measured at an excitation of 485 nm and an emission of 528 nm using a Tecan Infinite M1000 microplate reader.
Data analysis: PDE activity assays were performed in duplicate at each concentration.
Fluorescence intensity is converted to fluorescence polarization using the Tecan Magellan6 software. The fluorescence polarization data were analyzed using the computer software, Graphpad Prism. The fluorescence polarization (FPt) in absence of the compound in each data set was defined as 100% activity. In the absence of PDE and the compound, the value of fluorescent polarization (FPb) in each data set was defined as 0% activity. The percent activity in the presence of the compound was calculated according to the following equation: % activity=(FP−FPb)/(FPt−FPb)×100%, where FP=the fluorescence polarization in the presence of the compound.
The values of % activity versus a series of compound concentrations were then plotted using non-linear regression analysis of Sigmoidal dose-response curve generated with the equation Y=B+(T−B)/1+10^((LogEC50−X)×Hill Slope), where Y=percent activity, B=minimum percent activity, T=maximum percent activity, X=logarithm of compound and Hill Slope=slope factor or Hill coefficient. The IC50 value was determined by the concentration causing a half-maximal percent activity.

Structure (SMILES)	IC50
COc1ccc(CNc2c3c(nc4ccc(C#N)cc24)CCN(C)C3)cc1Cl [B, 10-[(3-chloro-4-methoxybenzyl)amino]-2-methyl-1,2,3,4-tetrahydrobenzo[b][1,6]naphthyridine-8-carbonitrile]	1 nM
CCN1Cc2nc3ccc(Cl)cc3c(NCc3ccc(OC)c(Cl)c3)c2C1=O [N, 7-chloro-9-[(3-chloro-4-methoxybenzyl)amino]-2-ethyl-2,3-dihydro-1H-pyrrolo[3,4-b]quinolin-1-one]	1.7 nM
CCN1Cc2nc3ccc(C#N)cc3c(NCc3ccc(OC)c(Cl)c3)c2C1=O [K, 9-[(3-chloro-4-methoxybenzyl)amino]-2-ethyl-1-oxo-2,3-dihydro-1H-pyrrolo[3,4-b]quinoline-7-carbonitrile]	0.059 nM
CCN1Cc2nc3ccc(OC)cc3c(NCc3ccc(OC)c(Cl)c3)c2C1=O [L, 9-((3-chloro-4-methoxybenzyl)amino)-2-ethyl-7-methoxy-2,3-dihydro-1H-pyrrolo[3,4-b]quinolin-1-one]	3.8 nM
CCN1Cc2nc3ccccc3c(NCc3ccc(OC)c(Cl)c3)c2C1=O [O, 9-[(3-chloro-4-methoxybenzyl)amino]-2-ethyl-2,3-dihydro-1H-pyrrolo[3,4-b]quinolin-1-one]	64 nM

Continued, values first:

IC50	Structure (SMILES)
0.2 nM	CCN1CCc2nc3ccc(C#N)cc3c(NCc3ccc(OC)c(Cl)c3)c2C1 [C, 10-[(3-chloro-4-methoxybenzyl)amino]-2-ethyl-1,2,3,4-tetrahydrobenzo[b][1,6]naphthyridine-8-carbonitrile]
0.29 nM	CCN1Cc2nc3ccc(C(F)(F)F)cc3c(NCc3ccc(OC)c(Cl)c3)c2C1=O [M, 9-[(3-chloro-4-methoxybenzyl)amino]-2-ethyl-7-(trifluoromethyl)-2,3-dihydro-1H-pyrrolo[3,4-b]quinolin-1-one]
333 nM	COc1ccc(CNc2c3c(nc4ccccc24)CN(C(C)(C)C)C3=O)cc1Cl [Compound P, 2-(tert-butyl)-9-[(3-chloro-4-methoxybenzyl)amino]-2,3-dihydro-1H-pyrrolo[3,4-b]quinolin-1-one]
